Test system: MV-4-11 cells
Assay: Gene expression microarray analysis (Affymetrix PrimeView) and GSEA
Type: cell-based, human
Parameters: RFU PODN (11730768_x_at) / Fold change /veh PODN (11730768_x_at) / RFU LINC00158 (11744669_a_at) / Fold change /veh LINC00158 (11744669_a_at) / RFU DUSP10 (11751237_a_at) / Fold change /veh DUSP10 (11751237_a_at) / RFU ID3 (11757404_x_at) / Fold change /veh ID3 (11757404_x_at) / RFU PLEKHG5 (11737974_s_at) / Fold change /veh PLEKHG5 (11737974_s_at) / RFU LRRC4B (11730491_at) / Fold change /veh LRRC4B (11730491_at) / RFU GIMAP4 (11747438_a_at) / Fold change /veh GIMAP4 (11747438_a_at) / RFU KRT8 (11758183_x_at) / Fold change /veh KRT8 (11758183_x_at) / RFU CNN1 (11734310_a_at) / Fold change /veh CNN1 (11734310_a_at) / RFU VPS37D (11726825_at) / Fold change /veh VPS37D (11726825_at) / RFU C10orf10 (11716522_x_at) / Fold change /veh C10orf10 (11716522_x_at) / RFU KIR2DL2 /// KIR2DL4 /// KIR2DL5A /// KIR2DL5B /// KIR2DS1 /// KIR2DS2 /// KIR2DS3 /// KIR2DS4 /// KIR3DL3 /// KIR3DL3 /// KIR3DS1 (11738374_at) / Fold change /veh KIR2DL2 /// KIR2DL4 /// KIR2DL5A /// KIR2DL5B /// KIR2DS1 /// KIR2DS2 /// KIR2DS3 /// KIR2DS4 /// KIR3DL3 /// KIR3DL3 /// KIR3DS1 (11738374_at) / RFU C1QL1 (11718748_at) / Fold change /veh C1QL1 (11718748_at) / RFU TMPRSS4 (11747572_a_at) / Fold change /veh TMPRSS4 (11747572_a_at) / RFU HAMP (11756126_x_at) / Fold change /veh HAMP (11756126_x_at) / RFU RNFT2 (11725882_a_at) / Fold change /veh RNFT2 (11725882_a_at) / RFU NR4A2 (11747474_a_at) / Fold change /veh NR4A2 (11747474_a_at) / RFU ABCC12 (11746883_a_at) / Fold change /veh ABCC12 (11746883_a_at) / RFU TMEM136 (11760407_x_at) / Fold change /veh TMEM136 (11760407_x_at) / RFU CLDN22 /// WWC2 (11732394_at) / Fold change /veh CLDN22 /// WWC2 (11732394_at) / RFU HLA-DPB1 (11760878_x_at) / Fold change /veh HLA-DPB1 (11760878_x_at) / RFU SPINT1 (11716480_a_at) / Fold change /veh SPINT1 (11716480_a_at) / RFU GAP43 (11754022_s_at) / Fold change /veh GAP43 (11754022_s_at) / RFU A4GNT (11735810_at) / Fold change /veh A4GNT (11735810_at) / RFU PRB3 (11715151_x_at) / Fold change /veh PRB3 (11715151_x_at) / RFU TUBB4B (11761932_at) / Fold change /veh TUBB4B (11761932_at) / RFU CAPN14 (11732068_a_at) / Fold change /veh CAPN14 (11732068_a_at) / RFU TMCC2 (11721928_a_at) / Fold change /veh TMCC2 (11721928_a_at) / RFU IRGQ (11745062_a_at) / Fold change /veh IRGQ (11745062_a_at) / RFU FAM174B (11720279_a_at) / Fold change /veh FAM174B (11720279_a_at) / RFU TMPRSS4 (11748680_a_at) / Fold change /veh TMPRSS4 (11748680_a_at) / RFU FAM212B (11763350_a_at) / Fold change /veh FAM212B (11763350_a_at) / RFU PLEKHG5 (11743358_a_at) / Fold change /veh PLEKHG5 (11743358_a_at) / RFU ZSCAN30 (11745921_a_at) / Fold change /veh ZSCAN30 (11745921_a_at) / RFU CMKLR1 (11741424_a_at) / Fold change /veh CMKLR1 (11741424_a_at) / RFU LOC101060620 /// MAPK8IP1 (11723275_at) / Fold change /veh LOC101060620 /// MAPK8IP1 (11723275_at) / RFU SPTSSB (11747773_x_at) / Fold change /veh SPTSSB (11747773_x_at) / RFU PRSS12 (11739890_at) / Fold change /veh PRSS12 (11739890_at) / RFU BIN1 (11741810_x_at) / Fold change /veh BIN1 (11741810_x_at) / RFU WNT11 (11732464_a_at) / Fold change /veh WNT11 (11732464_a_at) / RFU C10orf10 (11716521_a_at) / Fold change /veh C10orf10 (11716521_a_at) / RFU C5orf56 (11738089_at) / Fold change /veh C5orf56 (11738089_at) / RFU CYB561 (11721691_x_at) / Fold change /veh CYB561 (11721691_x_at) / RFU ANKRD19P (11752326_a_at) / Fold change /veh ANKRD19P (11752326_a_at) / RFU OR2T12 /// OR2T33 /// OR2T8 (11738714_s_at) / Fold change /veh OR2T12 /// OR2T33 /// OR2T8 (11738714_s_at) / RFU VCAN (11748164_a_at) / Fold change /veh VCAN (11748164_a_at) / RFU JSRP1 (11732532_at) / Fold change /veh JSRP1 (11732532_at) / RFU KRTAP10-11 (11738290_x_at) / Fold change /veh KRTAP10-11 (11738290_x_at) / RFU MYO3A (11730013_a_at) / Fold change /veh MYO3A (11730013_a_at) / RFU EBF3 (11725865_a_at) / Fold change /veh EBF3 (11725865_a_at) / RFU CAMK2N1 (11719241_x_at) / Fold change /veh CAMK2N1 (11719241_x_at) / RFU C5orf56 (11738088_a_at) / Fold change /veh C5orf56 (11738088_a_at) / RFU OLFML3 (11715873_a_at) / Fold change /veh OLFML3 (11715873_a_at) / RFU LOC100653217 /// NTM (11731650_a_at) / Fold change /veh LOC100653217 /// NTM (11731650_a_at) / RFU MAPK11 (11762145_a_at) / Fold change /veh MAPK11 (11762145_a_at) / RFU FIZ1 (11724087_x_at) / Fold change /veh FIZ1 (11724087_x_at) / RFU OASL (11726364_x_at) / Fold change /veh OASL (11726364_x_at) / RFU SOX15 (11748057_x_at) / Fold change /veh SOX15 (11748057_x_at) / RFU CD79A (11719716_a_at) / Fold change /veh CD79A (11719716_a_at) / RFU HIST1H1D (11736915_at) / Fold change /veh HIST1H1D (11736915_at) / RFU CASKIN2 (11723855_a_at) / Fold change /veh CASKIN2 (11723855_a_at) / RFU LOC730098 (11760151_x_at) / Fold change /veh LOC730098 (11760151_x_at) / RFU OR4N2 (11742367_at) / Fold change /veh OR4N2 (11742367_at) / RFU PRRT2 (11749266_a_at) / Fold change /veh PRRT2 (11749266_a_at) / RFU SNX32 (11753110_a_at) / Fold change /veh SNX32 (11753110_a_at) / RFU CDHR5 (11726645_a_at) / Fold change /veh CDHR5 (11726645_a_at) / RFU RCAN1 (11760418_a_at) / Fold change /veh RCAN1 (11760418_a_at) / RFU FAM167A (11723789_a_at) / Fold change /veh FAM167A (11723789_a_at) / RFU FAM26E (11764081_at) / Fold change /veh FAM26E (11764081_at) / RFU ISYNA1 (11749810_s_at) / Fold change /veh ISYNA1 (11749810_s_at) / RFU ACY1 (11761880_at) / Fold change /veh ACY1 (11761880_at) / RFU 11764098_at / Fold change /veh 11764098_at / RFU SAMD14 (11745864_x_at) / Fold change /veh SAMD14 (11745864_x_at) / RFU NPB (11741838_a_at) / Fold change /veh NPB (11741838_a_at) / RFU TMPRSS6 (11731388_a_at) / Fold change /veh TMPRSS6 (11731388_a_at) / RFU KRTAP10-2 (11738614_at) / Fold change /veh KRTAP10-2 (11738614_at) / RFU ARHGAP8 /// PRR5-ARHGAP8 (11727945_x_at) / Fold change /veh ARHGAP8 /// PRR5-ARHGAP8 (11727945_x_at) / RFU KRTAP5-7 /// NADSYN1 (11734609_at) / Fold change /veh KRTAP5-7 /// NADSYN1 (11734609_at) / RFU RASL12 (11751679_a_at) / Fold change /veh RASL12 (11751679_a_at) / RFU CDKN2B (11736163_a_at) / Fold change /veh CDKN2B (11736163_a_at) / RFU PRF1 (11729649_at) / Fold change /veh PRF1 (11729649_at) / RFU, ZNF638 /// ZNF638-IT1 / Fold change vs veh, ZNF638 /// ZNF638-IT1 / RFU, PANK3 / Fold change vs veh, PANK3 / RFU, SH3YL1 / Fold change vs veh, SH3YL1 / RFU, ZEB2 / Fold change vs veh, ZEB2 / RFU, NRIP1 / Fold change vs veh, NRIP1 / RFU, PTTG1IP / Fold change vs veh, PTTG1IP / RFU, CAPN2 / Fold change vs veh, CAPN2 / RFU, MED14 / Fold change vs veh, MED14 / RFU, SNORA58 / Fold change vs veh, SNORA58 / RFU, C1orf63 / Fold change vs veh, C1orf63 / RFU, LRRFIP1 / Fold change vs veh, LRRFIP1 / RFU, NDUFAF7 / Fold change vs veh, NDUFAF7 / RFU, SLC12A2 / Fold change vs veh, SLC12A2 / RFU, IBTK / Fold change vs veh, IBTK / RFU, ESF1 / Fold change vs veh, ESF1 / Fold change vs veh, TMEM50B / RFU, TAOK1 / Fold change vs veh, TAOK1 / RFU, ACBD3 / Fold change vs veh, ACBD3 / RFU, TMA16 / Fold change vs veh, TMA16 / RFU, RWDD3 / Fold change vs veh, RWDD3 / RFU, BCAT1 / Fold change vs veh, BCAT1 / RFU, EDEM3 / Fold change vs veh, EDEM3 / RFU, TMEM33 / Fold change vs veh, TMEM33 / RFU, WDR75 / Fold change vs veh, WDR75 / RFU, AHCTF1 / Fold change vs veh, AHCTF1 / RFU, TFRC / Fold change vs veh, TFRC / RFU, ZDHHC17 / Fold change vs veh, ZDHHC17 / RFU, NOM1 / Fold change vs veh, NOM1 / RFU, ARL8B / Fold change vs veh, ARL8B / RFU, ZBTB11 / Fold change vs veh, ZBTB11 / RFU, TAMM41 / Fold change vs veh, TAMM41 / RFU, KIAA1704 /// LOC100996395 / Fold change vs veh, KIAA1704 /// LOC100996395 / RFU, ING1 / Fold change vs veh, ING1 / RFU, TRMT61B / Fold change vs veh, TRMT61B / RFU, FUBP3 / Fold change vs veh, FUBP3 / RFU, TP53 / Fold change vs veh, TP53 / RFU, TNKS2 / Fold change vs veh, TNKS2 / RFU, ZFP14 / Fold change vs veh, ZFP14 / RFU, ACTR2 / Fold change vs veh, ACTR2 / RFU, PPP3R1 / Fold change vs veh, PPP3R1 / RFU, PIK3R1 / Fold change vs veh, PIK3R1 / RFU, HNRNPA1 / Fold change vs veh, HNRNPA1 / RFU, RNF170 / Fold change vs veh, RNF170 / RFU, ZNF28 / Fold change vs veh, ZNF28 / RFU, RNGTT / Fold change vs veh, RNGTT / RFU, OGT / Fold change vs veh, OGT / RFU, BRD1 / Fold change vs veh, BRD1 / RFU, MARS / Fold change vs veh, MARS / RFU, ZNF655 / Fold change vs veh, ZNF655 / RFU, FAHD1 / Fold change vs veh, FAHD1 / RFU, BDP1 / Fold change vs veh, BDP1 / RFU, LRRCC1 / Fold change vs veh, LRRCC1 / RFU, ARID1A / Fold change vs veh, ARID1A / RFU, ZNF146 / Fold change vs veh, ZNF146 / RFU, ZNF330 / Fold change vs veh, ZNF330 / RFU, GPN3 / Fold change vs veh, GPN3 / RFU, C9orf123 / Fold change vs veh, C9orf123 / RFU, N4BP2L2 / Fold change vs veh, N4BP2L2 / RFU, ARFIP1 / Fold change vs veh, ARFIP1 / RFU, FAM179B / Fold change vs veh, FAM179B / RFU, BCL10 / Fold change vs veh, BCL10 / RFU, UHRF1BP1L / Fold change vs veh, UHRF1BP1L / RFU, BET1 / Fold change vs veh, BET1 / RFU, CNOT2 / Fold change vs veh, CNOT2 / RFU, ZNF268 / Fold change vs veh, ZNF268 / Fold change vs veh, ZNF507 / RFU, DGCR2 / Fold change vs veh, DGCR2 / RFU, WDSUB1 / Fold change vs veh, WDSUB1 / Fold change vs veh, HSP90B1 /// MIR3652 / RFU, ADSS / Fold change vs veh, ADSS / RFU, GK / Fold change vs veh, GK / RFU, ZNF148 / Fold change vs veh, ZNF148 / RFU, TAF9 / Fold change vs veh, TAF9 / RFU, SLC1A5 / Fold change vs veh, SLC1A5 / RFU, SLMO2 / Fold change vs veh, SLMO2 / RFU, ABCC4 / Fold change vs veh, ABCC4 / RFU, LOC101060439 /// RAP1B / Fold change vs veh, LOC101060439 /// RAP1B / RFU, RFX7 / Fold change vs veh, RFX7 / RFU, GTPBP10 / Fold change vs veh, GTPBP10 / RFU, CNEP1R1 / Fold change vs veh, CNEP1R1 / RFU, BIVM-ERCC5 /// ERCC5 / Fold change vs veh, BIVM-ERCC5 /// ERCC5 / RFU, ILF3 / Fold change vs veh, ILF3 / RFU 11762660_at / Fold change /veh 11762660_at / RFU VCAN (11757783_s_at) / Fold change /veh VCAN (11757783_s_at) / RFU DDX43 (11728927_at) / Fold change /veh DDX43 (11728927_at) / RFU KRT8 (11758188_x_at) / Fold change /veh KRT8 (11758188_x_at) / RFU NKD1 (11759106_at) / Fold change /veh NKD1 (11759106_at) / RFU SRD5A1 (11742802_a_at) / Fold change /veh SRD5A1 (11742802_a_at) / RFU TPSAB1 /// TPSB2 (11721975_s_at) / Fold change /veh TPSAB1 /// TPSB2 (11721975_s_at) / RFU GSTM3 (11746129_a_at) / Fold change /veh GSTM3 (11746129_a_at) / RFU IL23R (11737362_x_at) / Fold change /veh IL23R (11737362_x_at) / RFU TMEM51 (11727254_a_at) / Fold change /veh TMEM51 (11727254_a_at) / RFU PIWIL2 (11732686_x_at) / Fold change /veh PIWIL2 (11732686_x_at) / RFU ORM1 (11744905_x_at) / Fold change /veh ORM1 (11744905_x_at) / RFU CCDC152 (11743942_at) / Fold change /veh CCDC152 (11743942_at) / RFU ECM1 (11717891_a_at) / Fold change /veh ECM1 (11717891_a_at) / RFU IL23R (11748794_a_at) / Fold change /veh IL23R (11748794_a_at) / RFU TNFAIP8L3 (11732012_x_at) / Fold change /veh TNFAIP8L3 (11732012_x_at) / RFU MBOAT4 (11741988_at) / Fold change /veh MBOAT4 (11741988_at) / RFU 11764193_at / Fold change /veh 11764193_at / RFU TMEM53 (11763286_at) / Fold change /veh TMEM53 (11763286_at) / RFU MAGEB2 (11727129_at) / Fold change /veh MAGEB2 (11727129_at) / RFU TMEM200A (11744735_a_at) / Fold change /veh TMEM200A (11744735_a_at) / RFU CCDC152 (11751479_a_at) / Fold change /veh CCDC152 (11751479_a_at) / RFU FAM211A (11726209_a_at) / Fold change /veh FAM211A (11726209_a_at) / RFU RGS16 (11746705_a_at) / Fold change /veh RGS16 (11746705_a_at) / RFU VCAN (11755009_s_at) / Fold change /veh VCAN (11755009_s_at) / RFU RHOB (11743442_s_at) / Fold change /veh RHOB (11743442_s_at) / RFU RGS16 (11720943_a_at) / Fold change /veh RGS16 (11720943_a_at) / RFU RGS16 (11720944_at) / Fold change /veh RGS16 (11720944_at) / RFU, VPS4B / Fold change vs veh, VPS4B / RFU, CREB1 / Fold change vs veh, CREB1 / RFU, DNAJC13 / Fold change vs veh, DNAJC13 / RFU, GNAQ / Fold change vs veh, GNAQ / RFU, CDK5R1 / Fold change vs veh, CDK5R1 / RFU, ZRANB3 / Fold change vs veh, ZRANB3 / RFU, CUL4A / Fold change vs veh, CUL4A / RFU, CCNY / Fold change vs veh, CCNY / RFU, UFL1 / Fold change vs veh, UFL1 / RFU, COG3 / Fold change vs veh, COG3 / RFU, DIAPH2 / Fold change vs veh, DIAPH2 / RFU, SKA2 / Fold change vs veh, SKA2 / RFU, AFF3 / Fold change vs veh, AFF3 / RFU, LMF1 / Fold change vs veh, LMF1 / RFU, IPO11 / Fold change vs veh, IPO11 / RFU, DFFB / Fold change vs veh, DFFB / RFU, FOXP1 / Fold change vs veh, FOXP1 / RFU, CARD8 / Fold change vs veh, CARD8 / RFU, STRN3 / Fold change vs veh, STRN3 / RFU, ADK / Fold change vs veh, ADK / RFU, RASSF2 / Fold change vs veh, RASSF2 / RFU, WIPF1 / Fold change vs veh, WIPF1 / RFU, LARP1B / Fold change vs veh, LARP1B / RFU, RASA1 / Fold change vs veh, RASA1 / RFU, RB1 / Fold change vs veh, RB1 / RFU, PPFIA1 / Fold change vs veh, PPFIA1 / RFU, MAT2A / Fold change vs veh, MAT2A / RFU, CCT5 / Fold change vs veh, CCT5 / RFU, WDR92 / Fold change vs veh, WDR92 / RFU, CUX1 / Fold change vs veh, CUX1 / RFU, TTC7A / Fold change vs veh, TTC7A / RFU, TMEM135 / Fold change vs veh, TMEM135 / RFU, DEPTOR / Fold change vs veh, DEPTOR / RFU, CPM / Fold change vs veh, CPM / RFU, DNAJB6 / Fold change vs veh, DNAJB6 / RFU, CACNA2D3 / Fold change vs veh, CACNA2D3 / RFU, DTX4 / Fold change vs veh, DTX4 / RFU, TFCP2 / Fold change vs veh, TFCP2 / RFU, GMCL1 /// GMCL1P1 / Fold change vs veh, GMCL1 /// GMCL1P1 / RFU, AEBP2 / Fold change vs veh, AEBP2 / RFU, SNHG1 /// SNORD22 /// SNORD25 /// SNORD26 /// SNORD27 /// SNORD28 /// SNORD29 /// SNORD31 / Fold change vs veh, SNHG1 /// SNORD22 /// SNORD25 /// SNORD26 /// SNORD27 /// SNORD28 /// SNORD29 /// SNORD31 / Fold change (Aza/veh), C12orf56 (ProbeSet 11735607_a_at) / Fold change (ACY-1035/veh), C12orf56 (ProbeSet 11735607_a_at) / Fold change (Aza/veh), FGFR1OP (ProbeSet 11751329_s_at) / Fold change (ACY-1035/veh), FGFR1OP (ProbeSet 11751329_s_at) / Fold change (Aza/veh), VPS36 (ProbeSet 11739960_a_at) / Fold change (ACY-1035/veh), VPS36 (ProbeSet 11739960_a_at) / RFU SYPL1 (11715823_x_at) / Fold change /veh SYPL1 (11715823_x_at) / RFU IGFBP7 (11715501_s_at) / Fold change /veh IGFBP7 (11715501_s_at) / RFU REEP3 (11722064_at) / Fold change /veh REEP3 (11722064_at) / RFU IGLL1 (11728026_x_at) / Fold change /veh IGLL1 (11728026_x_at): dose or concentration left out as unconfirmed
Conditions: MV-4-11 cells, 48 hours

Nc1ccc(-c2cccs2)cc1NC(=O)c1ccc2c(c1)cc(C1CC1)n2CCN1CCOCC1 [ACY-1035]
RFU LINC00158 (11744669_a_at): 7.93 RFU

— paper PMC5218480 (PLoS ONE, 2017)
